The record followed here is patent US8314131B2, “Triazole fused heteroaryl compounds and methods of use thereof” (Amgen Inc., priority 2007, dated 2012).

Experiment [1] concerns THP1 cells (LPS-induced TNF-α). Kind of experiment: Lipopolysaccharide-activated THP1 cell TNF production assay. Particulars: Homo sapiens, THP-1, TNF-α secretion, read-out: THP-1 cell based assay IC50. The method, then:
Lipopolysaccharide-Activated THP1 Cell TNF Production Assay
THP1 cells are resuspended in fresh THP1 media (RPMI 1640, 10% heat-inactivated FBS, 1XPGS, 1XNEAA, plus 30 μM βME) at a concentration of 1E6/mL. One hundred microliters of cells per well are plated in a polystyrene 96-well tissue culture. One microgram per mL of bacterial LPS is prepared in THP1 media and is transferred to the wells. Test compounds are dissolved in 100% DMSO and are serially diluted 3-fold in a polypropylene 96-well microtiter plate (drug plate). HI control and LO control wells contain only DMSO. One microliter of test compound from the drug plate followed by 10 μL of LPS are transferred to the cell plate. The treated cells are induced to synthesize and secrete TNF-α at 37° C. for 3 h. Forty microliters of conditioned media are transferred to a 96-well polypropylene plate containing 110 μL of ECL buffer (50 mM Tris-HCl pH 8.0, 100 mM NaCl, 0.05% Tween 20, 0.05% NaN3 and 1% FBS) supplemented with 0.44 nM MAB610 monoclonal Ab (R&D Systems), 0.34 nM ruthenylated AF210NA polyclonal Ab (R&D Systems) and 44 μg/mL sheep anti-mouse M280 Dynabeads (Dynal). After a 2 h incubation at room temperature with shaking, the reaction is read on the ECL M8 Instrument (IGEN Inc.). A low voltage is applied to the ruthenylated TNF-α immune complexes, which in the presence of TPA (the active component in Origlo), results in a cyclical redox reaction generating light at […]. The amount of secreted TNF-α in the presence of compound compared with that in the presence of DMSO vehicle alone (HI control) is calculated using the formula: % control (POC)=(cpd−average LO)/(average HI−average LO)*100. Data (consisting of POC and inhibitor concentration in μM) is fitted to a 4-parameter equation (y=A+((B−A)/(1+((x/C)^D))), where A is the minimum y (POC) value, B is the maximum y (POC), C is the x (cpd concentration) at the point of inflection and D is the slope factor) using a Levenburg-Marquardt non-linear regression algorithm.

The next experiment relates to IL-1. Kind of experiment: LPS induced IL-1 cell assay (LPS-induced release of IL-1β from monocytes). Particulars: Homo sapiens, Monocyte; LPS-activated monocytes. Type of experiment: cell-based. The method, then: Lipopolysaccharide-Activated Monocyte TNF Production Assay
Test compounds were evaluated in vitro for the ability to inhibit the production of TNF by monocytes activated with bacterial lipopolysaccharide (LPS). Fresh residual source leukocytes (a byproduct of plateletpheresis) were obtained from a local blood bank, and peripheral blood mononuclear cells (PBMCs) were isolated by density gradient centrifugation on Ficol-Paque Plus (Pharmacia). PBMCs were suspended at 2×10^6/mL in DMEM supplemented to contain 2% FCS, 10 mM, 0.3 mg/mL […], 100 U/mL penicillin G and […] streptomycin sulfate (complete media). Cells were plated into Falcon flat bottom, 96 well culture plates (200 μL/well) and cultured overnight at 37° C. and 6% CO2. Non-adherent cells were removed by washing with 200 μl/well of fresh medium. Wells containing adherent cells (˜70% monocytes) were replenished with 100 μL of fresh medium.
Preparation of Test Compound Stock Solutions
Test compounds were dissolved in […]. Compound stock solutions were prepared to an initial concentration of […]. Stocks were diluted initially to 20-200 μM in complete media. Nine two-fold serial dilutions of each compound were then prepared in complete medium.
Treatment of Cells with Test Compounds and Activation of TNF Production with Lipopolysaccharide
One hundred microliters of each test compound dilution were added to microtiter wells containing adherent monocytes and 100 μL complete medium. Monocytes were cultured with test compounds for 60 min at which time 25 μL of complete medium containing 30 ng/mL lipopolysaccharide from E. coli K532 were added to each well. Cells were cultured an additional 4 hrs. Culture supernatants were then removed and TNF presence in the supernatants was quantified using an ELISA.
Compounds of the invention can also be shown to inhibit LPS-induced release of IL-1β, IL-6 and/or IL-8 from monocytes by measuring concentrations of IL-1β, IL-6 and/or IL-8 by methods well known to those skilled in the art. […] Thus, the compounds of the invention may lower elevated levels of TNF-α, IL-1, IL-6, and IL-8 levels. Reducing elevated levels of these inflammatory cytokines to basal levels or below is favorable in controlling, slowing progression, and alleviating many disease states.

The target in another experiment is p38α (Homo sapiens, UniProt Q16539). Kind of experiment: p38 in-vitro HTRF enzyme assay. Particulars: recombinant human enzyme, read-out: p38a IC50. In kind it is biochemical. The method, then:
p38 In-Vitro HTRF Enzyme Assay
The compounds of the invention can be tested for their respective affinities for the p38 protein using a conventional p38 in-vitro enzyme activity assay. For example, a P38-alpha HTRF assay may be used to measure the protein's in-vitro phosphorylation activity, and the data analyzed using time resolved fluorimetry techniques (FRET). A p38 HTRF assay is as follows. The kinase reaction buffer for p38α, p38β, p38δ and p38γ HTRF assays consists of 50 mM Tris-pH 7.5, 5 mM MgCl2, 0.1 mg/mL BSA, 100 μM Na3VO4 and 0.5 mM DTT. The HTRF detection buffer contains 100 mM HEPES-pH 7.5, 100 mM NaCl, 0.1% BSA, 0.05% Tween-20, and 10 mM EDTA. Each compound was dissolved in 100% DMSO and serially diluted (3 fold, 10 point) in a polypropylene 96-well microtiter plate (drug plate). The final starting concentration of the compound in the p38α […]and p38β enzymatic assays was about 1 μM. The final starting concentration of each compound in the p38δ and p38γ enzymatic assays was about 10 μM. The p38α, p38β, p38δ and p38γ kinase reactions were carried out in a polypropylene 96-well black round bottom assay plate in total volume of 30 μL kinase reaction buffer. Appropriate concentration of purified and activated enzyme (recombinant human) was mixed with indicated concentration of ATP and 100 nM GST-ATF2-Avitag, in the presence or absence (HI control) of each compound. In the absence of enzyme, the background was measured as LO control. HI controls and LO controls contained only DMSO. The reaction was allowed to incubate for 1 hour at RT. […] After 60 minutes incubation at room temperature, the assay plate was read in a Discovery Plate Reader. The wells were excited with coherent 320 nm light and the ratio of delayed ([…] post excitation) emissions at […] (native europium fluorescence) and 665 nm (europium fluorescence transferred to allophycocyanin—an index of substrate phosphorylation) was determined (Park et al, 1999). The resulting data was analyzed by taking the proportion of substrate phosphorylated in the kinase reaction in the presence of each individual compound and comparing it with that phosphorylated in the presence of DMSO vehicle alone (HI control). The data was calculated using the formula: % control (POC)=(compound−average LO)/(average HI−average LO)*100. Data (consisting of POC and inhibitor concentration in μM) was fitted to a 4-parameter equation (y=A+((B−A)/(1+((x/C)^D))), where A is the minimum y (POC) value, B is the maximum y (POC), C is the x (compound concentration) at the point of inflection and D is the slope factor, using a Levenburg-Marquardt non-linear regression algorithm. The inhibition constant (Ki) of the inhibitor was estimated from the IC50 (compound concentration at the point of inflection C) using the Cheng-Prussof equation: Ki=IC50/(1+S/Km), where S is the ATP substrate concentration, and Km is the Michaelis constant for ATP as determined experimentally. All results were expressed as the mean±the standard error of the mean. Data acquisition and non-linear regression algorithms were performed using Activity Base v5.2 and XLfit software v4.1 respectively. Additional assay information may be obtained in Park Y W, Cummings R T, Wu L, et al. Homogeneous Proximity Tyrosine Kinase Assays: Scintillation Proximity Assay versus Homogeneous Time-Resolved Fluorescence. Analytical Biochemistry. 1999; 269: 94-104.

Sequence of p38α (Q16539 whole entry): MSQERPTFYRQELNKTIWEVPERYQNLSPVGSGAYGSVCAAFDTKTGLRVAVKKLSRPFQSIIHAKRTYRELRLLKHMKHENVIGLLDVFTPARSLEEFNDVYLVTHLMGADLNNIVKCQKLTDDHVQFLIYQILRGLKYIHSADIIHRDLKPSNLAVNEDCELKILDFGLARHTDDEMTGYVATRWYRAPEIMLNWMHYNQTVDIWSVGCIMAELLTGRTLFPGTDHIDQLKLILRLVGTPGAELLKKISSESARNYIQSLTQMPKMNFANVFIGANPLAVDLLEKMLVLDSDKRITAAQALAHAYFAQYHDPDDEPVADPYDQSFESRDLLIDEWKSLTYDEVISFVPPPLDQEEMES

Consider `Cc1ccc(C(=O)NC(C)C)cc1-c1ccc2c(c1)nnn2C(C)C` [Example 4, 4-methyl-N-(1-methylethyl)-3-(1-(1-methylethyl)-1H-1,2,3-benzotriazol-5-yl)benzamide], for which the IC50 in experiment [1] was 250 to 1000 nM; in the experiment on IL-1, 1000 to 5000 nM; at p38α, less than 25 nM.

For `Cc1ccc(C(=O)NC2CC2)cc1-c1ccc2c(c1)nnn2C(C)C` [Example 5, N-cyclopropyl-4-methyl-3-(1-(1-methylethyl)-1H-benzotriazol-5-yl)benzamide], the IC50 was 25 to 100 nM in experiment [1], 1000 to 5000 nM with IL-1 and less than 25 nM on p38α.

In the case of `Cc1c(F)cc(C(=O)NC2CC2)cc1-c1ccc2c(c1)nnn2-c1ccccc1Cl` [Example 6, 3-(1-(2-chlorophenyl)-1H-benzotriazol-5-yl)-N-cyclopropyl-5-fluoro-4-methylbenzamide], the half-maximal inhibitory concentration (IC50) in experiment [1] was less than 25 nM; with IL-1, 100 to 250 nM; at p38α, less than 25 nM.

In the case of `Cc1ccc(C(=O)NC2CC2)cc1-c1ccc2c(c1)nnn2-c1ccccc1Cl` [Example 7, 3-(1-(2-chlorophenyl)-1H-benzotriazol-5-yl)-N-cyclopropyl-4-methylbenzamide], the values for the IC50 (in experiment [1]; in the experiment with IL-1; on p38α) were 25 to 100 nM, 1000 to 5000 nM and less than 25 nM, respectively.

In the case of `Cc1cc(F)ccc1-n1nnc2cc(-c3cc(C(=O)NC4CC4)cc(F)c3C)ccc21` [Example 8, N-cyclopropyl-3-fluoro-5-(1-(4-fluoro-2-methylphenyl)-1H-benzotriazol-5-yl)-4-methylbenzamide], the IC50 in experiment [1] was less than 25 nM; with IL-1 it was 100 to 250 nM; on p38α it was less than 25 nM.

For `Cc1c(F)cc(C(=O)Nc2ccnn2C)cc1-c1ccc2c(c1)nnn2-c1ccccc1Cl` [Example 9, 3-(1-(2-chlorophenyl)-1H-benzotriazol-5-yl)-5-fluoro-4-methyl-N-(1-methyl-1H-pyrazol-5-yl)benzamide], the figures for the IC50 (in experiment [1]; in the experiment on IL-1; on p38α) were less than 25 nM, 25 to 100 nM and less than 25 nM, respectively.

In the case of `Cc1c(F)cc(C(=O)NC2CC2)cc1-c1ccc2c(c1)nnn2C(C)(C)C` [Example 10, N-cyclopropyl-3-(1-(1,1-dimethylethyl)-1H-benzotriazol-5-yl)-5-fluoro-4-methylbenzamide], the IC50 in experiment [1] is less than 25 nM; in the experiment on IL-1, 1000 to 5000 nM; on p38α it was less than 25 nM.

As to `Cc1c(F)cc(C(=O)NC2CC2)cc1-c1ccc2c(c1)nnn2C1CCOCC1` [Example 11, N-cyclopropyl-3-fluoro-4-methyl-5-(1-(tetrahydro-2H-pyran-4-yl)-1H-benzotriazol-5-yl)benzamide], the IC50 (in experiment [1]; in the experiment on IL-1) was 25 to 100 nM in each case.
